Laboratory results: paper PMC8214221, “Sequence determinants in the cathelicidin LL-37 that promote inflammation via presentation of RNA to scavenger receptors” (The Journal of Biological Chemistry, 2021)
Residues, ends and D or L forms follow the SMILES beside them.

tested on: normal human epidermal keratinocytes (NHEKs); test: LDH release cytotoxicity assay in keratinocytes; assay type: cell-based; settings: minimal concentration giving 50% LDH release by NHEKs
Description: Since LL-34 was the minimal truncation mutant of LL-37 that retained both antimicrobial and immune modulatory activity, we prepared a series of synthetic peptides with sequential substitutions of alanine at each amino acid position of the LL-34 parent peptide (Table 1). We compared the minimum inhibitory concentration (MIC) for the LL-34 parent peptide and the alanine mutants (LL-34 peptides—L1A and R34A) against methicillin-resistant Staphylococcus aureus strain USA300 (Fig. 1A). LL-34 peptides were incubated at concentrations of 0 to 100 μM with bacteria. The minimal concentration at which no growth was observed was noted after 18 h of incubation. […] Because of these changes in the MIC against S. aureus between the mutants, we investigated the effective toxicity profile of the peptides in normal human epidermal keratinocytes (NHEKs) by lactate dehydrogenase (LDH) release assay (Table 1). […] Most other peptides were cytotoxic at a minimal concentration of 10 μM, whereas LL-34—K15A was toxic at a concentration of 2.5 μM.
LDH cytotoxicity assay was performed according to manufacturer's instructions (Thermo Fisher Scientific). Culture supernatants from keratinocytes were used fresh for LDH assay after experimental treatments.

| SMILES | Minimal cytotoxic concentration in NHEK (LD50) |
| --- | --- |
| CC[C@H](C)[C@H](NC(=O)[C@H](CCCCN)NC(=O)[C@H](CCC(=O)O)NC(=O)[C@H](CCCCN)NC(=O)[C@H](CO)NC(=O)[C@H](CCCCN)NC(=O)[C@H](CCCNC(=N)N)NC(=O)[C@H](Cc1ccccc1)NC(=O)[C@H](Cc1ccccc1)NC(=O)[C@H](C)NC(=O)CNC(=O)[C@H](CC(C)C)NC(=O)[C@@H](N)CC(C)C)C(=O)NCC(=O)N[C@@H](CCCCN)C(=O)N[C@@H](CCC(=O)O)C(=O)N[C@@H](Cc1ccccc1)C(=O)N[C@@H](CCCCN)C(=O)N[C@@H](CCCNC(=N)N)C(=O)N[C@H](C(=O)N[C@H](C(=O)N[C@@H](CCC(N)=O)C(=O)N[C@@H](CCCNC(=N)N)C(=O)N[C@H](C(=O)N[C@@H](CCCCN)C(=O)N[C@@H](CC(=O)O)C(=O)N[C@@H](Cc1ccccc1)C(=O)N[C@@H](CC(C)C)C(=O)N[C@@H](CCCNC(=N)N)C(=O)N[C@@H](CC(N)=O)C(=O)N[C@@H](CC(C)C)C(=O)N[C@H](C(=O)N1CCC[C@H]1C(=O)N[C@@H](CCCNC(=N)N)C(=O)O)C(C)C)[C@@H](C)CC)C(C)C)[C@@H](C)CC [LL-34—D4A] (H-LLGAFFRKSKEKIGKEFKRIVQRIKDFLRNLVPR-OH; N-terminus and C-terminus assumed) | 5 µM |
| CC[C@H](C)[C@H](NC(=O)[C@H](CCCCN)NC(=O)[C@H](CCC(=O)O)NC(=O)[C@H](CCCCN)NC(=O)[C@H](CO)NC(=O)[C@H](CCCCN)NC(=O)[C@H](CCCNC(=N)N)NC(=O)[C@H](Cc1ccccc1)NC(=O)[C@H](Cc1ccccc1)NC(=O)[C@H](CC(=O)O)NC(=O)CNC(=O)[C@H](CC(C)C)NC(=O)[C@@H](N)CC(C)C)C(=O)NCC(=O)N[C@@H](CCCCN)C(=O)N[C@@H](CCC(=O)O)C(=O)N[C@@H](Cc1ccccc1)C(=O)N[C@@H](CCCCN)C(=O)N[C@@H](CCCNC(=N)N)C(=O)N[C@H](C(=O)N[C@H](C(=O)N[C@@H](CCC(N)=O)C(=O)N[C@@H](CCCNC(=N)N)C(=O)N[C@H](C(=O)N[C@@H](CCCCN)C(=O)N[C@@H](C)C(=O)N[C@@H](Cc1ccccc1)C(=O)N[C@@H](CC(C)C)C(=O)N[C@@H](CCCNC(=N)N)C(=O)N[C@@H](CC(N)=O)C(=O)N[C@@H](CC(C)C)C(=O)N[C@H](C(=O)N1CCC[C@H]1C(=O)N[C@@H](CCCNC(=N)N)C(=O)O)C(C)C)[C@@H](C)CC)C(C)C)[C@@H](C)CC [LL-34—D26A] (H-LLGDFFRKSKEKIGKEFKRIVQRIKAFLRNLVPR-OH; N-terminus and C-terminus assumed) | 10 µM |
| CC[C@H](C)[C@H](NC(=O)[C@H](CCCCN)NC(=O)[C@H](C)NC(=O)[C@H](CCCCN)NC(=O)[C@H](CO)NC(=O)[C@H](CCCCN)NC(=O)[C@H](CCCNC(=N)N)NC(=O)[C@H](Cc1ccccc1)NC(=O)[C@H](Cc1ccccc1)NC(=O)[C@H](CC(=O)O)NC(=O)CNC(=O)[C@H](CC(C)C)NC(=O)[C@@H](N)CC(C)C)C(=O)NCC(=O)N[C@@H](CCCCN)C(=O)N[C@@H](CCC(=O)O)C(=O)N[C@@H](Cc1ccccc1)C(=O)N[C@@H](CCCCN)C(=O)N[C@@H](CCCNC(=N)N)C(=O)N[C@H](C(=O)N[C@H](C(=O)N[C@@H](CCC(N)=O)C(=O)N[C@@H](CCCNC(=N)N)C(=O)N[C@H](C(=O)N[C@@H](CCCCN)C(=O)N[C@@H](CC(=O)O)C(=O)N[C@@H](Cc1ccccc1)C(=O)N[C@@H](CC(C)C)C(=O)N[C@@H](CCCNC(=N)N)C(=O)N[C@@H](CC(N)=O)C(=O)N[C@@H](CC(C)C)C(=O)N[C@H](C(=O)N1CCC[C@H]1C(=O)N[C@@H](CCCNC(=N)N)C(=O)O)C(C)C)[C@@H](C)CC)C(C)C)[C@@H](C)CC [LL-34—E11A] (H-LLGDFFRKSKAKIGKEFKRIVQRIKDFLRNLVPR-OH; N-terminus and C-terminus assumed) | 5 µM |
| CC[C@H](C)[C@H](NC(=O)[C@H](CCCCN)NC(=O)[C@H](CCC(=O)O)NC(=O)[C@H](CCCCN)NC(=O)[C@H](CO)NC(=O)[C@H](CCCCN)NC(=O)[C@H](CCCNC(=N)N)NC(=O)[C@H](Cc1ccccc1)NC(=O)[C@H](Cc1ccccc1)NC(=O)[C@H](CC(=O)O)NC(=O)CNC(=O)[C@H](CC(C)C)NC(=O)[C@@H](N)CC(C)C)C(=O)NCC(=O)N[C@@H](CCCCN)C(=O)N[C@@H](C)C(=O)N[C@@H](Cc1ccccc1)C(=O)N[C@@H](CCCCN)C(=O)N[C@@H](CCCNC(=N)N)C(=O)N[C@H](C(=O)N[C@H](C(=O)N[C@@H](CCC(N)=O)C(=O)N[C@@H](CCCNC(=N)N)C(=O)N[C@H](C(=O)N[C@@H](CCCCN)C(=O)N[C@@H](CC(=O)O)C(=O)N[C@@H](Cc1ccccc1)C(=O)N[C@@H](CC(C)C)C(=O)N[C@@H](CCCNC(=N)N)C(=O)N[C@@H](CC(N)=O)C(=O)N[C@@H](CC(C)C)C(=O)N[C@H](C(=O)N1CCC[C@H]1C(=O)N[C@@H](CCCNC(=N)N)C(=O)O)C(C)C)[C@@H](C)CC)C(C)C)[C@@H](C)CC [LL-34—E16A] (H-LLGDFFRKSKEKIGKAFKRIVQRIKDFLRNLVPR-OH; N-terminus and C-terminus assumed) | 5 µM |
| CC[C@H](C)[C@H](NC(=O)[C@H](CCCCN)NC(=O)[C@H](CCC(=O)O)NC(=O)[C@H](CCCCN)NC(=O)[C@H](CO)NC(=O)[C@H](CCCCN)NC(=O)[C@H](CCCNC(=N)N)NC(=O)[C@H](Cc1ccccc1)NC(=O)[C@H](Cc1ccccc1)NC(=O)[C@H](CC(=O)O)NC(=O)[C@H](C)NC(=O)[C@H](CC(C)C)NC(=O)[C@@H](N)CC(C)C)C(=O)NCC(=O)N[C@@H](CCCCN)C(=O)N[C@@H](CCC(=O)O)C(=O)N[C@@H](Cc1ccccc1)C(=O)N[C@@H](CCCCN)C(=O)N[C@@H](CCCNC(=N)N)C(=O)N[C@H](C(=O)N[C@H](C(=O)N[C@@H](CCC(N)=O)C(=O)N[C@@H](CCCNC(=N)N)C(=O)N[C@H](C(=O)N[C@@H](CCCCN)C(=O)N[C@@H](CC(=O)O)C(=O)N[C@@H](Cc1ccccc1)C(=O)N[C@@H](CC(C)C)C(=O)N[C@@H](CCCNC(=N)N)C(=O)N[C@@H](CC(N)=O)C(=O)N[C@@H](CC(C)C)C(=O)N[C@H](C(=O)N1CCC[C@H]1C(=O)N[C@@H](CCCNC(=N)N)C(=O)O)C(C)C)[C@@H](C)CC)C(C)C)[C@@H](C)CC [LL-34—G3A] (H-LLADFFRKSKEKIGKEFKRIVQRIKDFLRNLVPR-OH; N-terminus and C-terminus assumed) | 20 µM |
| CC[C@H](C)[C@H](NC(=O)[C@H](CCCCN)NC(=O)[C@H](CCC(=O)O)NC(=O)[C@H](CCCCN)NC(=O)[C@H](CO)NC(=O)[C@H](CCCCN)NC(=O)[C@H](CCCNC(=N)N)NC(=O)[C@H](Cc1ccccc1)NC(=O)[C@H](Cc1ccccc1)NC(=O)[C@H](CC(=O)O)NC(=O)CNC(=O)[C@H](CC(C)C)NC(=O)[C@@H](N)CC(C)C)C(=O)N[C@@H](C)C(=O)N[C@@H](CCCCN)C(=O)N[C@@H](CCC(=O)O)C(=O)N[C@@H](Cc1ccccc1)C(=O)N[C@@H](CCCCN)C(=O)N[C@@H](CCCNC(=N)N)C(=O)N[C@H](C(=O)N[C@H](C(=O)N[C@@H](CCC(N)=O)C(=O)N[C@@H](CCCNC(=N)N)C(=O)N[C@H](C(=O)N[C@@H](CCCCN)C(=O)N[C@@H](CC(=O)O)C(=O)N[C@@H](Cc1ccccc1)C(=O)N[C@@H](CC(C)C)C(=O)N[C@@H](CCCNC(=N)N)C(=O)N[C@@H](CC(N)=O)C(=O)N[C@@H](CC(C)C)C(=O)N[C@H](C(=O)N1CCC[C@H]1C(=O)N[C@@H](CCCNC(=N)N)C(=O)O)C(C)C)[C@@H](C)CC)C(C)C)[C@@H](C)CC [LL-34—G14A] (H-LLGDFFRKSKEKIAKEFKRIVQRIKDFLRNLVPR-OH; N-terminus and C-terminus assumed) | 5 µM |
